Test results published in article PMC4821856, “Novel Anti-Campylobacter Compounds Identified Using High Throughput Screening of a Pre-selected Enriched Small Molecules Library” (Frontiers in Microbiology, 2016).
Values after ≈ are worked out from the molar mass of the structure shown. Where two headings read alike, the source gives them in different places.

Assays:
C. jejuni 81–176 [1] = assay: Minimum bactericidal concentration (MBC); format: cell-based, Campylobacter jejuni; details: for MBC: Campylobacter jejuni, read-out: C. jejuni MBC (minimum bactericidal concentration)
Protocol: The percentage of C. jejuni growth inhibition was calculated as mentioned previously (De La Fuente et al., [2006]) using the following formula: percentage of inhibition = 100 × (OD negative control–OD test compound)/(OD negative control–OD positive control). Compounds that inhibited Campylobacter growth ≥ 99.0% were selected as primary hits. The culture in wells with ≥ 99% growth inhibition were streaked onto fresh MH agar, as were the sterility, antibiotic and no compound control wells. Bacterial growth was measured on the plate after 48 h at 42°C. Based on the recovery of C. jejuni on MH agar plates, the compound was classified as either “bacteriostatic” or “bactericidal.”
(§1) Minimum inhibitory concentration value not necessarily indicates the killing concentration; therefore, we determined MBC for the top-12 compounds. MBC is defined as the concentration at which 99.9% (below detection limit) of Campylobacter organisms are killed. The MBC for each of these compounds were determined as described previously (Ling et al., [2015]). […] Overall MIC and MBC values were higher for C. coli compared to C. jejuni strain. The MIC and MBC for these 12 compounds for both C. jejuni and C. coli are presented in (Table 1).

C. coli ATCC 33559 [2] = assay: Minimum inhibitory concentration (MIC); format: cell-based
Protocol: The dose-dependent effect of 35 compounds against the highly pathogenic C. jejuni 81–176 strain was tested. Compounds were two-fold serially diluted (200 to 12.5 μM). One hundred micro liter of the OD600 0.1 adjusted C. jejuni culture was pipetted in to each well of a 96 well plate, treated with 1 μL of diluted compound and the plate was incubated at 42°C under microaerobic conditions for 24 h. Growth inhibition was assessed as above.
(§2) Initially we re-confirmed the efficacy of the 79 resynthesized compounds against C. jejuni 81–176 and C. coli ATCC 33559.
as §1

C. coli ATCC 33559 [3] = assay: Minimum bactericidal concentration (MBC); format: cell-based, Campylobacter coli; details: for MBC: Campylobacter coli
Protocol: as §2, §1

C. jejuni 81–176 [4] = assay: Single step resistance assay at lethal dose (5X MIC) on solid media; format: cell-based, Campylobacter jejuni; details: solid MH agar with 5X MIC, 5 days, 42°C; resistant colonies observed yes/no
Protocol: (§3) Single step and sequential passage resistance assays were performed as described previously with a few modifications (Ling et al., [2015]; Xu et al., [2015]). The top 12 hit compounds were tested in this experiment. The MIC values for each of these 12 compound as determined in above assay was used for C. jejuni resistance studies using lethal (5X MIC) and sub-lethal (0.5X MIC) concentrations.
Campylobacter jejuni grown in MH medium overnight at 42°C was centrifuged at 4700 × g for 10 min at room temperature. The supernatant was discarded and the bacteria were resuspended in MH broth to an OD600 of 1.0 (~1 × 10^9 CFU). Compounds (5X MIC) were mixed with 5 ml of molten MH agar medium and transferred immediately onto small 35 mm petri-plates, agar in the plate was allowed to solidify in the dark. Ten micro liter of culture was transferred to the small molecule containing plates and spread using sterile beads, plates were incubated at 42°C for 5 days in the dark. Bacteria spread on MH agar with 50 μg/mL kanamycin or MH agar alone, were used as positive and negative controls, respectively. After 5 days of incubation, any colonies that developed were assessed for resistance to the test compounds by determining MIC and the MBC as noted above.
(§4) Our rationale for performing the resistance studies was to determine the ability of C. jejuni strain to develop resistance to these compounds when cultured on solid media with a lethal dose (5X MIC) or in liquid media with a sub-lethal dose (0.5X MIC). The presence of resistant colonies in any of these assays would reduce the attractiveness of the relevant small molecule while an absence of resistant colonies would indicate a likely inability of C. jejuni to develop resistance in general. […] Since C. jejuni is the major cause of human campylobacteriosis (95% of the cases); (Butzler, [2004]) and due to limitation of compounds availability, we only performed resistance studies on C. jejuni 81–176. However, for future commercial application of these antimicrobials, more in-depth characterization of potential resistance by other C. jejuni strains and C. coli is warranted.

C. jejuni 81–176 [5] = assay: Sequential passage resistance assay at sub-lethal dose (0.5X MIC), 15 passages; format: cell-based, Campylobacter jejuni; details: liquid MH with 0.5X MIC
Protocol: as §3
Overnight grown C. jejuni 81–176 culture was washed and suspended in MH broth to an OD600 of 0.05 (~10^7 CFU). Five milli liter of the OD adjusted fresh culture was mixed with 0.5X MIC of the relevant test compound (concentration allowing > 50% growth inhibition). Campylobacter jejuni cultured in 20 μg/mL chloramphenicol, or 50 μg/mL kanamycin, or 2% DMSO, or non-amended MH broth were used as controls. The bacteria were incubated at 42°C with shaking at 200 rpm for 24 h in the dark. Following incubation, cultures were centrifuged at 4700 × g for 10 min at room temperature. The supernatant was discarded; bacteria were resuspended in 5 ml of fresh MH containing 0.5X MIC of the same small molecule. This procedure was repeated 14 times. Following 15 passages, bacterial suspensions were assessed for resistance to the test compound by plating on MH media containing 1X MIC of small molecules.
as §4

Hemolytic activity = format: cell-based; details: 10% sheep RBCs, 37°C
Protocol: The hemolytic activity of the top-12 compounds were determined as previously described (Strom et al., [2003]; Selin et al., [2015]). Briefly, 500 μL of sheep red blood cells (LAMPIRE Biological Laboratories, Pipersville, PA) were washed three times in PBS and resuspended in 5 mL of PBS to prepare a working concentration of 10% RBCs. Two hundred micro liter of the 10% RBCs suspension was incubated with 200 μM concentrations of compounds for 1 h at 37°C in a 96 well plate. After incubation, the plate was centrifuged (4000 rpm, 5 min) and placed on ice for few min. Supernatants from each well was transferred to a fresh 96 well plate and OD of 540 nm was measured. The PBS and 0.1% Triton X-100 were used as negative and positive controls, respectively. A range of 1–10% DMSO was also used as a control. A percent hemolysis was calculated using the following formula:
% Hemolysis=(OD of compound−OD of DMSO/ OD of Triton-X100)×100
Two independent experiments in triplicate were performed and results were expressed as the % average hemolysis.

[6] = Campylobacter coli, ATCC33559, read-out: C. coli MIC
[7] = ATCC33559, read-out: C. coli MBC
[8] = concentration at which 99.9% of organisms are killed
[9] = Campylobacter coli, ATCC33559; read-out: C. coli MIC
[10] = ATCC33559, concentration at which 99.9% of organisms are killed, read-out: C. coli MBC
[11] = sheep red blood cells (10% suspension)

| SMILES | MBC relative to MIC for C. jejuni (C. jejuni 81–176 [1]) | MBC (C. jejuni 81–176 [1]) [µM] | MIC (C. coli ATCC 33559 [2]; [6]) [µM] | MBC relative to MIC for C. coli (C. coli ATCC 33559 [3]) | MBC (C. coli ATCC 33559 [3]; [7]) [µM] | Resistance, single step 5X MIC (C. jejuni 81–176 [4]) | Resistance, passage 0.5X MIC (C. jejuni 81–176 [5]) | hemolysis at 1 h, 200 µM (Hemolytic activity) [%] | MBC (C. jejuni 81–176 [1]; [8]) [µM] | MIC (C. coli ATCC 33559 [2]; [9]) [µM] | MBC (C. coli ATCC 33559 [3]; [10]) [µM] | hemolysis at 1 h, 200 µM (Hemolytic activity; [11]) [%] |
| --- | --- | --- | --- | --- | --- | --- | --- | --- | --- | --- | --- | --- |
| COc1ccc(CN2CCN(c3ccc(F)cc3)CC2)cc1C [Comp 2] | same as that of their MIC | 100 (≈ 31.4 µg/mL) | 50 (≈ 15.7 µg/mL) | two-fold higher | 100 (≈ 31.4 µg/mL) | No | No | 0 |  |  |  |  |
| Cc1c(C(C)NCc2cccc(OC3CCCC3)c2)cnn1-c1ccccc1 (stereo not drawn) [Comp 10] | same as that of their MIC |  |  | same as that of their MIC |  | No | No |  | 50 (≈ 18.8 µg/mL) | 100 (≈ 37.6 µg/mL) | 100 (≈ 37.6 µg/mL) | 0 |
| O=S(=O)(Nc1cccc(C(F)(F)F)c1)c1ccc(Br)cc1 [Comp 1] | same as that of their MIC |  |  | same as that of their MIC |  | No | No |  | 50 (≈ 19 µg/mL) | 50 (≈ 19 µg/mL) | 50 (≈ 19 µg/mL) | 7.4 |
| Cc1ccc(N2CCN(C/C=C/c3ccccc3)CC2)cc1 [Comp 5] | same as that of their MIC |  |  | same as that of their MIC |  | No | No |  | 50 (≈ 14.6 µg/mL) | 50 (≈ 14.6 µg/mL) | 50 (≈ 14.6 µg/mL) | 0 |
| CN(C)c1ccc(CN2CCN(c3ccccc3Cl)CC2)cc1 [Comp 3] | two-fold higher | 25 (≈ 8.25 µg/mL) | 50 (≈ 16.5 µg/mL) | same as that of their MIC | 50 (≈ 16.5 µg/mL) | No | No | 0 |  |  |  |  |
| CN(Cc1ccccc1)CC1CCCN(CCc2ccc(F)cc2)C1 (stereo not drawn) [Comp 18] | same as that of their MIC |  |  | two-fold higher |  | No | No |  | 25 (≈ 8.51 µg/mL) | 200 (≈ 68.1 µg/mL) | > 200 | 0 |
| CC(=O)Nc1ccc(CN(C)CC2CCCN(CCc3cccc(C(F)(F)F)c3)C2)cc1 (stereo not drawn) [Comp 22] | two-fold higher |  |  | same as that of their MIC |  | No | No |  | 25 (≈ 11.2 µg/mL) | 100 (≈ 44.8 µg/mL) | 100 (≈ 44.8 µg/mL) | 0 |
| CN(Cc1cccc2cnccc12)CC1CCCN(CCc2ccc(F)cc2)C1 (stereo not drawn) [Comp 13] | two-fold higher |  |  | same as that of their MIC |  | No | No |  | 25 (≈ 9.79 µg/mL) | 50 (≈ 19.6 µg/mL) | 50 (≈ 19.6 µg/mL) | 0 |
| COc1ccc(CNCc2ccc(Cl)s2)cc1OCC(O)CN1CCCC1 (stereo not drawn) [Comp 12] | same as that of their MIC |  |  | two-fold higher |  | No | No |  | 100 (≈ 41.1 µg/mL) | 50 (≈ 20.5 µg/mL) | 100 (≈ 41.1 µg/mL) | 0 |
| O=c1c(Cl)c(Cl)cnn1-c1ccccc1Cl [Comp 7] | same as that of their MIC |  |  | same as that of their MIC |  | No | No |  | 12.5 (≈ 3.44 µg/mL) | 50 (≈ 13.8 µg/mL) | 50 (≈ 13.8 µg/mL) | 0 |
| Clc1ccc(N2CCN(Cc3ccsc3)CC2)cc1 [Comp 4] | same as that of their MIC |  |  | two-fold higher |  | No | No |  | 50 (≈ 14.6 µg/mL) | 50 (≈ 14.6 µg/mL) | 100 (≈ 29.3 µg/mL) | 0 |
| CN(CC(O)COc1ccccc1CNC1(c2ccccc2)CC1)C1CCCCC1 (stereo not drawn) [Comp 17] | two-fold higher |  |  | same as that of their MIC |  | No | No |  | 25 (≈ 10.2 µg/mL) | 50 (≈ 20.4 µg/mL) | 50 (≈ 20.4 µg/mL) | 0 |
